Experiment [1] deals with T1, ALK2 (Mus musculus, UniProt P37172).
T1 construct: The C2C12 cell line was selected for the measurement of ALK2 activity using BMP6 as the agonist; host or cells: C2C12
T1 sequence (P37172 21-509): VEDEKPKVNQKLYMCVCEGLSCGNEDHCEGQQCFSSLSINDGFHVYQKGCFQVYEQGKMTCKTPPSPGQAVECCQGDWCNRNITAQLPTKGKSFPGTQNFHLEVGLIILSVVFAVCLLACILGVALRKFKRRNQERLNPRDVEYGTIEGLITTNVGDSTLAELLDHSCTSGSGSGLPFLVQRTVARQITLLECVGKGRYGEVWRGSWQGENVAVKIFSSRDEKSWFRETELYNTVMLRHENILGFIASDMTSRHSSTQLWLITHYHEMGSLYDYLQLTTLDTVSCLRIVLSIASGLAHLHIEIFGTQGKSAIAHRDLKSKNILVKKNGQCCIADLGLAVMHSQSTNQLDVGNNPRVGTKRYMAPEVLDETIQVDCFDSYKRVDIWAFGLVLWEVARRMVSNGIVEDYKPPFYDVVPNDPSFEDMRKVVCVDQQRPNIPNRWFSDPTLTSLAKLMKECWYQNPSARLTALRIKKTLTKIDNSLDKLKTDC
Nature of the experiment: HTRF pSMAD1 cell-based ALK2 assay (C2C12 cells, BMP6 as agonist). The method in brief:
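Phospho-SMAD1 HTRF readout, detection incubated overnight at room temperature. Before that: starved cells in 0.1% FBS for 4 h, 30 min compound pretreatment, then 30 min agonist, BMP6 on C2C12 or BMP9 on BAOEC.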
For orientation: TR-FRET usually uses a lanthanide donor and a delayed reading to cut background.

For experiment [2], the target named is T1, ALK2. Kind of experiment: In-cell Western ALK2 assay (C2C12 cells, BMP6 as agonist). Type of experiment: cell-based. The following applies: read-out: BMP6 ICW. From the text:
3. In-Cell Western ALK1 and ALK2 Assays in 384-Well Plate Format.
We also optimized cell-based In-cell Western assays for measurements of ALK1 and ALK2 activities that were used to determine compound activities in these two kinases. The cell lines and agonists used were same as described in above cell-based HTRF ALK1 and ALK2 assays. The initial cell plating and compound treatment were also same. The main difference is the detection of phosphorylation status of SMAD1. In t-cell Western assay, the cells were fixed and phosphorylation status of SMAD1 was detected by the ELISA instead of using the HTRF assay kit in above assay.
HyClone Fetal Bovine Serum was obtained from GE healthcare life sciences (Logan, Utah). BMP6 and BMP9 were purchased from R&D System (R&D). Anti-P-SMAD 1/5/8 rabbit mAb and anti-rabbit IgG, HRP-Linked antibody were purchased from Cell Signaling Technology (Danvers, Mass.). BioFX Chemiluminescent Ultra-Sensitive HRP Microwell Substrate ECL Reagent was obtained from SurModics (Edina, Minn.). The compound plates and the white solid MB assay plates were from Greiner Bio-one (Monroe, N.C.).
Similarly as described in above HTRF cell-based assay, this assay was performed in 384 well plate format. […] Pre-starved cells were then plated in 384 well plate in the starvation medium (containing in 0.1% FBS). After 4 hours, compound dilutions in DMSO were added to the assay plate and incubated for 30 minutes. The assay plate was then added with BMP6 for C2C12 cells or BMP9 for BAOEC cells and incubated for 30 minutes.
The cells were washed in the plate washer with PBS and blocked with 2% BSA in PBS for 1 h at room temperature on the rotator. After removing the blocking reagent, the cells were incubated with the anti-p-SMAD1 antibody in 2% BSA in PBS for overnight at 4° C. on rotator. The cells were washed with PBS in the plate washer and incubated with HRP conjugated second antibody in 2% BSA in PBS for 1 hour at room temperature. After a cell wash with PBS, ECL detection reagent was added and the plate was read in the luminesce mode in the ViewLux plate reader.

The target in experiment [3] is T2, ALK2 (Homo sapiens, UniProt Q04771).
T2 sequence (Q04771 21-509): T1 sequence (P37172 21-509) with V1M, Q10P, I121L, E162D, S310P
Nature of the experiment: TR-FRET enzymatic ALK kinase assay, ALK2.
Protocol: Briefly, the ALKs enzymatic assay was initiated by dispense 2.5 μl enzyme in 1× kinase reaction buffer. The assay plate was then added with compounds followed by incubation at room temperature for 10 minutes. Then 2.5 μl/well substrate was added.

A further experiment deals with BMP4. Kind of experiment: BMP4 HTRF assay. It is filed as cell-based.
Where [4] appears, read: cell-based assay, BMP6, read-out: Cell IC50 BMP6.
[5] abbreviates: HTRF assay, BMP6 as agonist, C2C12 cells, read-out: BMP6 HTRF.

Residue numbers refer to the chain shown, from its start. Values joined by “and” are separate entries in the source; they are usually repeats but may differ in a detail not shown here. Equal values may be shown once.

This passage reports IC50 results from US10513521B2, “Compositions and methods for inhibiting BMP” (The Brigham and Women's Hospital, Inc., priority 2014, dated 2019).

For the compound `CC(C)S(=O)(=O)c1cccc(-c2cnn3cc(-c4ccc(CCN5CCCCC5)cc4)cnc23)c1` [Compound 113, 3-(3-(isopropylsulfonyl)phenyl)-6-(4-(2-(piperidin-1-yl)ethyl)phenyl)pyrazolo[1,5-a]pyrimidine], the IC50 on ALK2 [1] (setting [4]) was 4.6 nM; at ALK2 [2] it was 360 nM and 220 nM; at ALK2 [3] it was 94 nM.

Regarding `C[S+](=O)([O-])c1cccc(-c2cnn3cc(-c4ccc(OC5(CN6CCCCC6)COC5)cc4)cnc23)c1` [Compound 93, 3-(3-(methylsulfonyl)phenyl)-6-(4-((3-(piperidin-1-ylmethyl)oxetan-3-yl)oxy)phenyl)pyrazolo[1,5-a]pyrimidine], the IC50 at ALK2 [1] (setting [5]) was determined as 230 nM; at ALK2 [1] (setting [4]), 11 nM; in the experiment with BMP4, 100 nM; against ALK2 [3], 29 nM.

`C[S+](=O)([O-])c1cccc(-c2cnn3cc(-c4ccc(OCCN5CCCCC5)cc4)cnc23)c1` [Compound 109]: the IC50 on ALK2 [1] (setting [4]) is 2 nM; at ALK2 [2], 190 nM and 300 nM; against ALK2 [3] it was 95 nM.

`CC1(c2ccc(-c3cnc4c(-c5cccc(S(C)(=O)=O)c5)cnn4c3)cc2)CCNCC1` [Compound 115, 6-(4-(4-methylpiperidin-4-yl)phenyl)-3-(3-(methylsulfonyl)phenyl)pyrazolo[1,5-a]pyrimidine]: the values for the IC50 at ALK2 [1] (setting [4]) and against ALK2 [3] were 11 nM and 33 nM, respectively.

Take `C[C@@H]1CNC[C@H](C)N1c1ccc(-c2cnc3c(-c4cccc5c(C(N)=O)cccc45)cnn3c2)cc1` [Compound 10, 5-(6-(4-((2S,6R)-2,6-dimethylpiperazin-1-yl)phenyl)pyrazolo[1,5-a]pyrimidin-3-yl)-1-naphthamide]: the IC50 came to 19 nM on ALK2 [1] (setting [5]), 4 nM at ALK2 [1] (setting [4]), 140 nM in the experiment with BMP4 and 8 nM against ALK2 [3].

As for `CC(O)c1cccc(-c2cnn3cc(-c4ccc(OC5(CN6CCCCC6)CC5)cc4)cnc23)c1` (stereo not drawn) [Compound 143, 1-(3-(6-(4-(1-(piperidin-1-ylmethyl)cyclopropoxy)phenyl)pyrazolo[1,5-a]pyrimidin-3-yl)phenyl)ethanol], the IC50 at ALK2 [1] (setting [5]) was 230 nM; on ALK2 [2], 57 nM and 56 nM; against ALK2 [3] it was 47 nM.

For `C[C@@H]1CNC[C@H](C)N1c1ccc(-c2cnc3c(-c4cccc(S(C)(=O)=O)c4)cnn3c2)cc1` [Compound 82, 6-(4-((2R,6S)-2,6-dimethylpiperazin-1-yl)phenyl)-3-(3-(methylsulfonyl)phenyl)pyrazolo[1,5-a]pyrimidine], the IC50 on ALK2 [1] (setting [5]) stood at 308 nM; at ALK2 [1] (setting [4]), 1 nM; with BMP4, 180 nM; at ALK2 [3], 12 nM.

With `C[C@@H]1CNC[C@H](C)N1c1ccc(-c2cnc3c(-c4cccc(C(C)(C)O)c4)cnn3c2)cc1` [Compound 103, 2-(3-(6-(4-((2R,6S)-2,6-dimethylpiperazin-1-yl)phenyl)pyrazolo[1,5-a]pyrimidin-3-yl)phenyl)propan-2-ol], the IC50 was 260 nM at ALK2 [1] (setting [5]), 18 nM at ALK2 [1] (setting [4]), 130 nM with BMP4 and 13 nM at ALK2 [3].

As to `CS(=O)(=O)c1cccc(-c2cnn3cc(-c4ccc(CN5CCCCC5)cc4)cnc23)c1` [Compound 123, 3-(3-(methylsulfonyl)phenyl)-6-(4-(piperidin-1-ylmethyl)phenyl)pyrazolo[1,5-a]pyrimidine], the IC50 on ALK2 [1] (setting [5]) was 150 nM and 130 nM; at ALK2 [1] (setting [4]), 2.4 nM; at ALK2 [2], 300 nM and 100 nM; on ALK2 [3], 56 nM.

As to `C[S+](=O)([O-])c1cccc(-c2cnn3cc(-c4ccc(OC5(Cn6ccnc6)COC5)cc4)cnc23)c1` [Compound 105, 6-(4-((3-((1H-imidazol-1-yl)methyl)oxetan-3-yl)oxy)phenyl)-3-(3-(methylsulfonyl)phenyl)pyrazolo[1,5-a]pyrimidine], the IC50 at ALK2 [1] (setting [5]) is 350 nM; on ALK2 [1] (setting [4]), < 1 nM; in the experiment on BMP4 it was 9 nM; on ALK2 [3] it was 95 nM.

As for `N/C(=N/O)c1ccc(-c2cnn3cc(-c4ccc(N5CCNCC5)cc4)cnc23)c2ccccc12` [Compound 15, N′-hydroxy-4-(6-(4-(piperazin-1-yl)phenyl)pyrazolo[1,5-a]pyrimidin-3-yl)-1-naphthimidamide], the IC50 on ALK2 [1] (setting [4]) came out at 170 nM; against ALK2 [3], 43 nM.

Take `C[C@@H]1CNC[C@H](C)N1c1ccc(-c2cnc3c(-c4cccc(C[S+](C)(=O)[O-])c4)cnn3c2)cc1` [Compound 117, 6-(4-((2R,6S)-2,6-dimethylpiperazin-1-yl)phenyl)-3-(3-((methylsulfonyl)methyl)phenyl)pyrazolo[1,5-a]pyrimidine]: the results for the IC50 on ALK2 [1] (setting [4]) and at ALK2 [3] were 66 nM and 49 nM, respectively.

As to `CC(C)S(=O)(=O)c1cccc(-c2cnn3cc(-c4ccc(N5[C@H](C)CNC[C@@H]5C)cc4)cnc23)c1` [Compound 114, 6-(4-((2R,6S)-2,6-dimethylpiperazin-1-yl)phenyl)-3-(3-(isopropylsulfonyl)phenyl)pyrazolo[1,5-a]pyrimidine], the IC50 at ALK2 [1] (setting [4]) was < 1 nM; at ALK2 [2], 110 nM and 88 nM; against ALK2 [3], 32 nM.

On to `NS(=O)(=O)c1ccc(-c2cnn3cc(-c4ccc(CCN5CCCCC5)cc4)cnc23)c2ccccc12` [Compound 54, 4-(6-(4-(2-(piperidin-1-yl)ethyl)phenyl)pyrazolo[1,5-a]pyrimidin-3-yl)naphthalene-1-sulfonamide], for which the IC50 at ALK2 [1] (setting [4]) is 160 nM; on ALK2 [2], 240 nM and 300 nM and 170 nM and 160 nM; on ALK2 [3], 94 nM.

Take `C[C@@H]1CNC[C@H](C)N1c1ccc(-c2cnc3c(-c4cccc([S+](=O)([O-])C5CC5)c4)cnn3c2)cc1` [Compound 111, 3-(3-(cyclopropylsulfonyl)phenyl)-6-(4-((2R,6S)-2,6-dimethylpiperazin-1-yl)phenyl)pyrazolo[1,5-a]pyrimidine]: the IC50 on ALK2 [1] (setting [4]) was < 1 nM; on ALK2 [2] it was 180 nM and 170 nM; on ALK2 [3], 17 nM.

Consider `CS(=O)(=O)c1cccc(-c2cnn3cc(-c4ccc(OCCN5CCCC5)cc4)cnc23)c1` [Compound 108, 3-(3-(methylsulfonyl)phenyl)-6-(4-(2-(pyrrolidin-1-yl)ethoxy)phenyl)pyrazolo[1,5-a]pyrimidine], for which the IC50 at ALK2 [1] (setting [4]) was 185 nM; at ALK2 [3] it was 83 nM.

For the compound `CC(C)(CN1CCCCC1)Oc1ccc(-c2cnc3c(-c4cccc5c(C(N)=O)cccc45)cnn3c2)cc1` [Compound 18, 5-(6-(4-((2-methyl-1-(piperidin-1-yl)propan-2-yl)oxy)phenyl)pyrazolo[1,5-a]pyrimidin-3-yl)-1-naphthamide], the IC50 came out at 11 nM on ALK2 [1] (setting [4]) and 5 nM on ALK2 [3].

As for `CC(O)c1cccc(-c2cnn3cc(-c4ccc(N5[C@H](C)CNC[C@@H]5C)cc4)cnc23)c1` (stereo partly drawn) [Compound 83, 1-(3-(6-(4-((2R,6S)-2,6-dimethylpiperazin-1-yl)phenyl)pyrazolo[5-a]pyrimidin-3-yl)phenyl)ethanol], the IC50 came out at 35 nM at ALK2 [1] (setting [4]) and 12 nM against ALK2 [3].
